Results on 38 molecules are retold here after patent US20220227707A1, “COMPOUNDS AND COMPOSITIONS FOR TREATING CONDITIONS ASSOCIATED WITH NLRP ACTIVITY” (Novartis AG, priority 2019, published 2022).

Broadly, the pIC50 is the negative decadic logarithm of the IC50, by convention in mol/L.

Each structure is given as a SMILES string. pIC50: −log10 of the molar value.

For the first test, the system named is IL-1β production in PMA-differentiated THP-1 cells. Put plainly: IL-1β production in PMA-differentiated THP-1 cells stimulated with gramicidin (hTHP-1 assay). The settings on record: Average IC50, hTHP-1 assay containing 2% fetal bovine serum; Table 10, class symbols. The format is cell-based, human. Here is the method: Procedure 1: IL-1β Production in PMA-Differentiated THP-1 Cells Stimulated with Gramicidin
THP-1 cells were purchased from the American Type Culture Collection and sub-cultured according to instructions from the supplier. Cells were cultured in complete RPMI 1640 (containing 10% heat inactivated FBS, penicillin (100 units/ml) and streptomycin (100 μg/ml)), and maintained in log phase prior to experimental setup. Prior to the experiment, compounds were dissolved in dimethyl sulfoxide (DMSO) to generate a 30 mM stock. The compound stock was first pre-diluted in DMSO to 3, 0.34, 0.042 and 0.0083 mM intermediate concentrations and subsequently spotted using Echo550 liquid handler into an empty 384-well assay plate to achieve desired final concentration (e.g. 100, 33, 11, 3.7, 1.2, 0.41, 0.14, 0.046, 0.015, 0.0051, 0.0017 μM). DMSO was backfilled in the plate to achieve a final DMSO assay concentration of 0.37%. The plate was then sealed and stored at room temperature until required.
THP-1 cells were treated with PMA (Phorbol 12-myristate 13-acetate) (20 ng/ml) for 16-18 hours. On the day of the experiment the media was removed and adherent cells were detached with trypsin for 5 minutes. Cells were then harvested, washed with complete RPMI 1640, spun down, and resuspended in RPMI 1640 (containing 2% heat inactivated FBS, penicillin (100 units/ml) and streptomycin (100 μg/ml). The cells were plated in the 384-well assay plate containing the spotted compounds at a density of 50,000 cells/well (final assay volume 50 μl). Cells were incubated with compounds for 1 hour and then stimulated with gramicidin (5 μM) (Enzo) for 2 hours. Plates were then centrifuged at 340 g for 5 min. Cell free supernatant ([…]) was collected using a 96-channel PlateMaster (Gilson) and the production of IL-1β was evaluated by HTRF (cisbio). The plates were incubated for 18 h at 4° C. and read using the preset HTRF program (donor emission at 620 nm, acceptor emission at 668 nm) of the SpectraMax i3x spectrophotometer (Molecular Devices, software SoftMax 6). A vehicle only control and a dose titration of CRID3 (100-0.0017 μM) were run concurrently with each experiment.
Procedure 2: […] Production in PMA-Differentiated THP-1 Cells Stimulated with Gramicidin
THP-1 cells were purchased from the American Type Culture Collection and sub-cultured according to instructions from the supplier. Prior to experiments, cells were cultured in complete RPMI 1640 (containing 10% heat inactivated FBS, penicillin (100 units/ml) and streptomycin (100 μg/ml)), and maintained in log phase prior to experimental setup. Prior to the experiment THP-1 were treated with PMA (Phorbol 12-myristate 13-acetate) (20 ng/ml) for 16-18 hours. Compounds were dissolved in dimethyl sulfoxide (DMSO) to generate a 30 mM stock. On the day of the experiment the media was removed and adherent cells were detached with trypsin for 5 minutes. Cells were then harvested, washed with complete RPMI 1640, spun down, resuspended in RPMI 1640 (containing 2% heat inactivated FBS, penicillin (100 units/ml) and streptomycin (100 μg/ml). The cells were plated in a 384-well plate at a density of 50,000 cells/well (final assay volume 50 μl). Compounds were first dissolved in assay medium to obtain a 5× top concentration of 500 μM. 10 step dilutions (1:3) were then undertaken in assay medium containing 1.67% DMSO. 5× compound solutions were added to the culture medium to achieve desired final concentration (e.g. 100, 33, 11, 3.7, 1.2, 0.41, 0.14, 0.046, 0.015, 0.0051, 0.0017 μM). Final DMSO concentration was at 0.37%. Cells were incubated with compounds for 1 hour and then stimulated with gramicidin (5 μM) (Enzo) for 2 hours. Plates were then centrifuged at 340 g for 5 min. Cell free supernatant (40 μL) was collected using a 96-channel PlateMaster (Gilson) and the production of IL-1β was evaluated by HTRF (cisbio). A vehicle only control and a dose titration of CRID3 (100-0.0017 μM) were run concurrently with each experiment. […]
Molecule `CN(C)CCCS(N)(=O)=NC(=O)Nc1c2c(cc3c1CCC3)CCC2` (single isomer, unassigned) [Compound 142, 3-(dimethylamino)-N′-((1,2,3,5,6,7-hexahydro-s-indacen-4-yl)carbamoyl)propane-1-sulfonimidamide] had a pIC50 of 5.30 to 6.00.
Same read-out and setting: as for `CN(C)CCCS(N)(=O)=NC(=O)Nc1c2c(cc3c1CCC3)CCC2` (single isomer, unassigned) [Compound 143, 3-(dimethylamino)-N′-((1,2,3,5,6,7-hexahydro-s-indacen-4-yl)carbamoyl)propane-1-sulfonimidamide], the figure is 4.52 to 5.30.
Still for that read-out and setting: as for `NS(=O)(=NC(=O)Nc1c2c(cc3c1CCC3)CCC2)C1CC1` (single isomer, unassigned) [Compound 155], the figure is 4.52 to 5.30.
Same read-out and setting: next, `CC(C)(O)c1ccc(CS(N)(=O)=NC(=O)Nc2c3c(cc4c2CCC4)CCC3)cc1` (single isomer, unassigned) [Compound 165a]: 5.30 to 6.00; `CC(C)(O)c1ccc(CS(N)(=O)=NC(=O)Nc2c3c(cc4c2CCC4)CCC3)cc1` (single isomer, unassigned) [Compound 165b]: 6.70 to 7.40.
For `CC(CN(C)C)CS(N)(=O)=NC(=O)Nc1c2c(cc3c1CCC3)CCC2` (centres unmarked) [Compound 121], the pIC50 is 4.52 to 5.30.
The same measure, in the same setting: as for `CC(CN(C)C)CS(N)(=O)=NC(=O)Nc1c2c(cc3c1CCC3)CCC2` (centres unmarked) [Compound 123, 3-(dimethylamino)-N′-((1,2,3,5,6,7-hexahydro-s-indacen-4-yl)carbamoyl)-2-methylpropane-1-sulfonimidamide], the figure is 4.52 to 5.30; as for `CC(CN(C)C)CS(N)(=O)=NC(=O)Nc1c2c(cc3c1CCC3)CCC2` (centres unmarked) [Compound 125, 3-(dimethylamino)-N′-((1,2,3,5,6,7-hexahydro-s-indacen-4-yl)carbamoyl)-2-methylpropane-1-sulfonimidamide], 5.30 to 6.00.
The same measure, in the same setting: as for `CN(C)CCCS(N)(=O)=NC(=O)Nc1c2c(cc3c1CCC3)CCC2` (centres unmarked) [Compound 144], the figure is 4.52 to 5.30.

Still in this test, the particulars now being: Average IC50, hTHP-1 assay containing 2% fetal bovine serum; Table 10, numeric values.
`NS(=O)(=NC(=O)Nc1c2c(cc3c1CCC3)CCC2)C1CCC1` (single isomer, unassigned) [Compound 146] gave a negative-log IC50 (pIC50) of less than 4.52.
The same measure, in the same setting: as for `CN1CCC(S(N)(=O)=NC(=O)Nc2c3c(cc4c2CCC4)CCC3)CC1` (centres unmarked) [Compound 138], the figure is less than 4.52; as for `CN1CCC(S(N)(=O)=NC(=O)Nc2c3c(cc4c2CCC4)CCC3)CC1` (centres unmarked) [Compound 140], less than 4.52; as for `NS(=O)(=NC(=O)Nc1c2c(cc3c1CCC3)CCC2)C1CCCCC1` (centres unmarked) [Compound 148], less than 4.52.
Same read-out and setting: next, `NS(=O)(=NC(=O)Nc1c2c(cc3c1CCC3)CCC2)C1CCCCC1` (centres unmarked) [Compound 150]: less than 4.52; `NS(=O)(=NC(=O)Nc1c2c(cc3c1CCC3)CCC2)C1CCCC1` (centres unmarked) [Compound 152]: less than 4.52.
Still for that read-out and setting: as for `CN(C)CC1(S(N)(=O)=NC(=O)Nc2c3c(cc4c2CCC4)CCC3)CC1` (centres unmarked) [Compound 159], the figure is less than 4.52; as for `CN(C)CC1(S(N)(=O)=NC(=O)Nc2c3c(cc4c2CCC4)CCC3)CC1` (centres unmarked) [Compound 160], less than 4.52.

Staying with this test, now noted: Homo sapiens, THP-1, Average IC50, hTHP-1 assay containing 2% fetal bovine serum; Table 3B, class symbols.
Molecule `CN(C)S(N)(=O)=NC(=O)Nc1c2c(cc3c1CCC3)CCC2` (centres unmarked) [Compound 101B, 3-[amino(dimethylamino)oxo-lambda6-sulfanylidene]-1-(1,2,3,5,6,7-hexahydro-s-indacen-4-yl)urea] gave a pIC50 of 4.52 to 5.30.

The same test, now with this note: Homo sapiens, THP-1, Average IC50, hTHP-1 assay containing 2% fetal bovine serum; Table 10, class symbols.
Consider `NS(=O)(=NC(=O)Nc1c2c(cc3c1CCC3)CCC2)C1CC1` (single isomer, unassigned) [Compound 154], for which the pIC50 was 4.52 to 5.30.
The molecule `CN(C)Cc1ccc(CS(N)(=O)=NC(=O)Nc2c3c(cc4c2CCC4)CCC3)cc1` (centres unmarked) [Compound 104, 1-(4-((dimethylamino)methyl)pheny1)-N′-((1,2,3,5,6,7-hexahydro-s-indacen-4-yl)carbamoyl) methane-sulfonimidamide] gave a pIC50 of 5.30 to 6.00.
The same measure, in the same setting: next, `CC(CCc1ccccc1)S(N)(=O)=NC(=O)Nc1c2c(cc3c1CCC3)CCC2` (centres unmarked) [Compound 109]: 4.52 to 5.30.
Consider `CC(=O)NS(C)(=O)=NC(=O)Nc1c2c(cc3c1CCC3)CCC2` (centres unmarked) [Compound 111], for which the pIC50 is 4.52 to 5.30.
Same read-out and setting: next, `CN1CCC(CS(N)(=O)=NC(=O)Nc2c3c(cc4c2CCC4)CCC3)C1` (centres unmarked) [Compound 112, N′-((1,2,3,5,6,7-hexahydro-s-indacen-4-yl)carbamoy1)-1-(1-methylpyrrolidin-3-yl) methane-sulfonimidamide]: 5.30 to 6.00; `CS(N)(=O)=NC(=O)Nc1c2c(cc3c1CCC3)CCC2` (centres unmarked) [Compound 115, N′-((1,2,3,5,6,7-hexahydro-s-indacen-4-yl)carbamoyl) methane-sulfonimidamide]: 4.52 to 5.30.
On the same count and under the same terms, as for `NS(=O)(=NC(=O)Nc1c2c(cc3c1CCC3)CCC2)C1Cc2ccccc2C1` (centres unmarked) [Compound 139, N′-((1,2,3,5,6,7-hexahydro-s-indacen-4-yl)carbamoy1)-2,3-dihydro-1H-indene-2-sulfonimidamide], the figure is 4.52 to 5.30.
The same measure, in the same setting: as for `CN(C)CCCS(N)(=O)=NC(=O)Nc1c2c(cc3c1CCC3)CCC2` (centres unmarked) [Compound 141], the figure is 4.52 to 5.30; as for `NS(=O)(=NC(=O)Nc1c2c(cc3c1CCC3)CCC2)C1CCCC1` (centres unmarked) [Compound 153], 4.52 to 5.30.

Still in this test, the particulars now being: Homo sapiens, THP-1, Average IC50, hTHP-1 assay containing 2% fetal bovine serum; Table 10, numeric values.
`NS(=O)(=NC(=O)Nc1c2c(cc3c1CCC3)CCC2)C1CCC1` (single isomer, unassigned) [Compound 145]: the pIC50 was less than 4.52.
On the same count and under the same terms, as for `CNS(C)(=O)=NC(=O)Nc1c2c(cc3c1CCC3)CCC2` (centres unmarked) [Compound 103, N′-((1,2,3,5,6,7-hexahydro-s-indacen-4-yl)carbamoy1)-N-methylmethane-sulfonimidamide], the figure is less than 4.52; as for `CN(C)S(C)(=O)=NC(=O)Nc1c2c(cc3c1CCC3)CCC2` (centres unmarked) [Compound 107], less than 4.52.
The same measure, in the same setting: as for `CS(=O)(=NC(=O)Nc1c2c(cc3c1CCC3)CCC2)NC(=O)c1ccccc1` (centres unmarked) [Compound 108], the figure is less than 4.52.
Same read-out and setting: as for `CC(CN(C)C)CS(N)(=O)=NC(=O)Nc1c2c(cc3c1CCC3)CCC2` (centres unmarked) [Compound 126, 3-(dimethylamino)-N′-((1,2,3,5,6,7-hexahydro-s-indacen-4-yl)carbamoyl)-2-methylpropane-1-sulfonimidamide], the figure is less than 4.52.
Molecule `CN1CCC(S(N)(=O)=NC(=O)Nc2c3c(cc4c2CCC4)CCC3)CC1` (centres unmarked) [Compound 137] gave a pIC50 of less than 4.52.
The same measure, in the same setting: as for `NS(=O)(=NC(=O)Nc1c2c(cc3c1CCC3)CCC2)C1CCCCC1` (centres unmarked) [Compound 147], the figure is less than 4.52; as for `NS(=O)(=NC(=O)Nc1c2c(cc3c1CCC3)CCC2)C1CCC1` (centres unmarked) [Compound 149, N′-((1,2,3,5,6,7-hexahydro-s-indacen-4-yl)carbamoyl) cyclobutane-sulfonimidamide], less than 4.52; as for `NS(=O)(=NC(=O)Nc1c2c(cc3c1CCC3)CCC2)C1CCCC1` (centres unmarked) [Compound 151], less than 4.52.
The same measure, in the same setting: next, `NS(=O)(=NC(=O)Nc1c2c(cc3c1CCC3)CCC2)C1CC1` (centres unmarked) [Compound 156, N′-((1,2,3,5,6,7-hexahydro-s-indacen-4-yl)carbamoyl) cyclopropane-sulfonimidamide]: less than 4.52; `CN(C)CC1(S(N)(=O)=NC(=O)Nc2c3c(cc4c2CCC4)CCC3)CC1` (centres unmarked) [Compound 158]: less than 4.52.
